{"source": "patent US11253533B1", "about": "“Water dissolvable macrocyclic lactone cyclodextrin complexes” (MOUNTAIN VALLEY MD INC, priority 2020, dated 2022)", "origin": "cited, not measured here", "data": [{"smiles": "CC[C@H](C)[C@H]1O[C@]2(CC[C@@H]1C)C[C@@H]1C[C@@H](C/C=C(\\C)[C@@H](O[C@H]3C[C@H](OC)[C@@H](O[C@H]4C[C@H](OC)[C@@H](O)[C@H](C)O4)[C@H](C)O3)[C@@H](C)/C=C/C=C3\\CO[C@@H]4[C@H](O)C(C)=C[C@@H](C(=O)O1)[C@]34O)O2", "note": "[Ivermectin, (1R,4S,5'S,6R,6′R,8R,10E,12S,13S,14E,16E,20R,21R,24S)-6′-[(2S)-butan-2-yl]-21,24-dihydroxy-12-[(2R,4S,5S,6S)-5-[(2S,4S,5S,6S)-5-hydroxy-4-methoxy-6-methyloxan-2-yl]oxy-4-methoxy-6-methyloxan-2-yl]oxy-5′,11,13,22-tetramethylspiro[3,7,19-trioxatetracyclo[15.6.1.14,8.020,24]pentacosa-10,14,16,22-tetraene-6,2′-oxane]-2-one]", "values": [{"measurement": "maximum concentration of ivermectin", "setting": "FR 3042412, without an organic solvent", "result": "2 mg per millileter of water"}, {"measurement": "solubility of Ivermectin", "setting": "U.S. Pat. No. 4,389,397, with organic solvents, no cyclodextrin", "result": 7, "unit": "%"}, {"measurement": "solubility in water", "setting": "at 25 degrees Celsius", "result": "about 0.005 mg per ml"}]}]}
